From patent publication US20260234144A1 (TAY THERAPEUTICS LIMITED, priority 2023, published 2026)

Tests used:
[1] = test system: R223X stop codon in the mutated luciferase gene, ADXC8 luciferase reporter cell line; test: cells; type: cell-based; conditions: 24 h, ADXC8 cells, 24 hours; for Emax: read-out: Fold Over Control, maximum fold response relative to 200 μM G418; for EC (100% of 200 uM G418 response): read-out: pC100%, negative logarithm of the concentration giving the same response as 200 μM G418
[2] = test system: R213X mutation in the p53 gene, HDQ-P1 cells; test: Read-through of R213X mutation in HDQ-P1 cells: truncated and full-length p53 by automated capillary electrophoresis western analysis; type: cell-based; conditions: Homo sapiens; for EC (50% of 200 uM G418 response): pC50% NMD: production of truncated p53, concentration giving 50% of the response of 200 μM G418, 24 h; for EC (100% of 200 uM G418 response): pC100% RT: production of full-length p53, concentration giving the same response as 200 μM G418, 24 h
Protocol: The ability of compounds to promote read-through in cells was assessed using the HDQ-P1 cell line which contain the R213X mutation in the p53 gene. […] Changes in the protein levels of p21, a direct downstream target of p53, were also determined as evidence of functional p53 protein production.
HDQ-P1 cells (R213X) were treated with DMSO (0.3%), or test article for 24 h at various concentrations. Cells were washed once with ice cold 1×PBS and lysed in M-Per protein extraction reagent (ThermoFisher), Benzonase® Nuclease and protease inhibitor mixture (Roche) centrifuged at 4° C. for 15 min at 16 000×g, the supernatants, termed cell extracts, were collected and total proteins were quantified with Bradford protein assay kit (ThermoFisher). Briefly, mixtures of cell lysates (protein concentration 0.5 mg/mL) and the fluorescent master mix were heated at 95° C. for 5 min. […] Signals were generated using BioTechne anti-mouse detection module and anti-rabbit NIR detection module. […] As an additional loading control, total protein levels were assessed with the ProteinSimple protein normalisation module. The data were acquired and analysed using the inbuilt Compass software (ProteinSimple) with the high dynamic range detection profile, which uses multiple substrate injections and exposure times. Electropherograms were converted to pseudo-blots and presented in figures for ease of visualization.
Concentration effect curves for both the production of truncated and full-length p53 were analysed using non-linear regression using the CDD Vault from Collaborative Drug Discovery (Burlingame, CA). […] The bottom and top of the curves were constrained to 0 and the maximum measured response respectively. From the fitted curves, the software derived C100% or C50% values (the concentration giving the same or 50% of the response of 200 μM G418) for each compound. The negative logarithm of C50% or C100% is reported as pC50% NMD or pC100% RT for the production of truncated or full-length p53 respectively (Table 2).

SMILES	Emax [1] [%]	EC (100% of 200 uM G418 response) [1] [µM]	EC (50% of 200 uM G418 response) [2] [µM]	EC (100% of 200 uM G418 response) [2] [µM]
CN1CCC(Nc2nc(N)c3c4c(c(-c5ccccc5)nc3n2)CCC4)CC1 [Example 45, N^3-(1-methylpiperidin-4-yl)-6-phenyl-8,9-dihydro-7H-cyclopenta[4,5]pyrido[2,3-d]pyrimidine-1,3-diamine]	100 to 3000	0.1 to 1	1 to 10	1 to 10
Cc1c(Cl)c(-c2ccccc2)nc2nc(NC3CCN(C)CC3)nc(N)c12 [Example 48, 6-chloro-5-methyl-N2-(1-methylpiperidin-4-yl)-7-phenylpyrido[2,3-d]pyrimidine-2,4-diamine]	–	1 to 10	1 to 10	1 to 10
Cc1cc(C)c2c(N)nc(N[C@@H]3CCCNC3)nc2n1 [Example 225, (R)-5,7-dimethyl-N^2-(piperidin-3-yl)pyrido[2,3-d]pyrimidine-2,4-diamine]	–	0.1 to 1	0.1 to 1	1 to 10
CNc1nc(N[C@H]2CNC[C@@H]2OC)nc2nc(C)cc(C)c12 [Example 227, N^2-((3S,4S)-4-methoxypyrrolidin-3-yl)-N^4,5,7-trimethylpyrido[2,3-d]pyrimidine-2,4-diamine]	–	0.1 to 1	1 to 10	1 to 10
CNc1nc(N[C@H]2CN(C)C[C@@H]2OC)nc2nc(C)cc(C)c12 [Example 228, N^2-((3S,4S)-4-methoxy-1-methylpyrrolidin-3-yl)-N^4,5,7-trimethylpyrido[2,3-d]pyrimidine-2,4-diamine]	100 to 3000	0.1 to 1	0.1 to 1	1 to 10
CNc1nc(N[C@H]2CN(C)C[C@H]2F)nc2nc3c(c(C)c12)CCC3 [Example 233, N^2-((3S,4R)-4-fluoro-1-methylpyrrolidin-3-yl)-N^4,5-dimethyl-7,8-dihydro-6H-cyclopenta[5,6]pyrido[2,3-d]pyrimidine-2,4-diamine]	100 to 3000	0.1 to 1	0.1 to 1	–
CCNc1nc(N[C@@H]2CCN(C)C2)nc2nc3c(c(C)c12)CCC3 [Example 234, (R)—N^4-ethyl-5-methyl-N^2-(1-methylpyrrolidin-3-yl)-7,8-dihydro-6H-cyclopenta[5,6]pyrido[2,3-d]pyrimidine-2,4-diamine]	–	0.1 to 1	0.1 to 1	0.1 to 1
CNc1nc(N[C@@H]2CCNC2)nc2nc(C)c3c(c12)CCC3 [Example 304]	–	0.1 to 1	1 to 10	1 to 10
CCNc1nc(NC2CCN(C)CC2)nc2nc(C)cc(C)c12 [Example 322]	–	0.1 to 1	1 to 10	1 to 10
CNc1nc(N[C@H]2CN(C)C[C@@H]2O)nc2nc(C)cc(C)c12 [Example 338]	100 to 3000	1 to 10	1 to 10	–
CNc1nc(N[C@H]2CNC[C@H]2F)nc2nc3c(c(C)c12)CCC3 [Example 343]	100 to 3000	0.1 to 1	1 to 10	1 to 10
CNc1nc(N[C@H]2CN(C)C[C@@H]2F)nc2nc3c(c(C)c12)CCC3 [Example 362]	100 to 3000	1 to 10	0.1 to 1	1 to 10
CNc1nc(N[C@H]2CN(C)C[C@@H]2O)nc2nc(C)c3c(c12)CCC3 [Example 363]	100 to 3000	0.1 to 1	0.1 to 1	1 to 10
CCNc1nc(N[C@@H]2CCN(C)C2)nc2nc(C)c3c(c12)CCC3 [Example 396]	–	0.1 to 1	1 to 10	1 to 10
CNc1cc(N[C@H]2CN(C)C[C@H]2F)nc2nc3c(c(C)c12)CCC3 [Example 422]	–	0.1 to 1	0.1 to 1	0.1 to 1
CNc1nc(N[C@H]2CN(C)C[C@@H]2OC)nc2nc3c(c(C)c12)CCC3 [Example 423]	–	0.01 to 0.1	0.1 to 1	0.1 to 1
CC(=O)Nc1ccccc1CN1CCC(Nc2nc(N)c3c(C)cc(C)nc3n2)CC1 [Example 486]	100 to 3000	0.1 to 1	1 to 10	1 to 10
CNc1nc(N[C@H]2CNCC[C@H]2OC)nc2nc(C)cc(C)c12 [Example 516, N^2-((3S,4R)-4-methoxypiperidin-3-yl)-N^4,5,7-trimethylpyrido[2,3-d]pyrimidine-2,4-diamine]	–	0.01 to 0.1	0.1 to 1	0.1 to 1
Cc1c2c(nc3nc(NC4CCN(Cc5ccc(C#N)cc5O)CC4)nc(N)c13)CCC2 [Example 526, 4-((4-((4-amino-5-methyl-7,8-dihydro-6H-cyclopenta[5,6]pyrido[2,3-d]pyrimidin-2-yl)amino)piperidin-1-yl)methyl)-3-hydroxybenzonitrile]	100 to 3000	0.01 to 0.1	0.1 to 1	1 to 10
Cc1nc2nc(NC3CCN(Cc4ccncc4)CC3)nc(N)c2c2c1CCC2 [Example 529]	100 to 3000	0.1 to 1	1 to 10	–
Cc1nc2nc(NC3CCN(Cc4cccc(F)c4O)CC3)nc(N)c2c2c1CCC2 [Example 531]	100 to 3000	0.1 to 1	1 to 10	1 to 10
Cc1c2c(nc3nc(NC4CCN(Cc5cccc(F)c5O)CC4)nc(N)c13)CCC2 [Example 532]	100 to 3000	0.01 to 0.1	0.1 to 1	1 to 10
Cc1c2c(nc3nc(NC4CCNCC4)nc(N)c13)CCC2 [Example 577]	100 to 3000	0.01 to 0.1	1 to 10	1 to 10
CO[C@H]1CNC[C@@H]1Nc1nc(N)c2c(C)cc(C)nc2n1 [Example 583]	–	0.01 to 0.1	1 to 10	–
Cc1c2c(nc3nc(NC4CCN(Cc5ccncc5)CC4)nc(N)c13)CCC2 [Example 651]	100 to 3000	0.1 to 1	0.1 to 1	1 to 10
CNc1nc(NC2CCN(Cc3ccccc3O)CC2)nc2nc3c(c(C)c12)CCC3 [Example 656]	100 to 3000	0.01 to 0.1	0.1 to 1	0.1 to 1
